Test results taken from paper PMC5504357, “Antifungal Potential of Copper(II), Manganese(II) and Silver(I) 1,10-Phenanthroline Chelates Against Multidrug-Resistant Fungal Species Forming the Candida haemulonii Complex: Impact on the Planktonic and Biofilm Lifestyles” (Frontiers in Microbiology, 2017).

What was measured:
[1] = tested on: Candida duobushaemulonii; experiment: Planktonic growth, broth microdilution (CLSI M27-A3), MIC; assay type: cell-based; conditions: for GM-MIC: geometric mean of three C. duobushaemulonii isolates; for MIC: planktonic, 48 h, 37°C
Summary of the method: (§1)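 Three clinical isolates per species (nail, blood, urine origin), grown in Sabouraud-dextrose 48 h at 37°C, were tested by CLSI M27-A3 broth microdilution in RPMI 1640 over 0.0625-32 mg/L. After 48 h at 37°C, MIC was the lowest concentration with no visible growth; the across-isolate value is a geometric mean MIC.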

[2] = tested on: Candida haemulonii var. vulnera; experiment: as above; assay type: cell-based; conditions: for GM-MIC: geometric mean of three C. haemulonii var. vulnera isolates; for MIC: planktonic, 48 h, 37°C
Summary of the method: as §1

[3] = tested on: Candida haemulonii; experiment: as above; assay type: cell-based; conditions: for GM-MIC: geometric mean of three C. haemulonii isolates; for MIC: planktonic, 48 h, 37°C
Summary of the method: as §1

[4] = tested on: C. haemulonii complex; experiment: Planktonic growth, overall across all nine isolates; assay type: cell-based, Candida haemulonii complex; conditions: geometric mean across all nine strains; for MIC: in μM, read-out: Overall GM-MIC
Summary of the method: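 Following CLSI M27-A3, compounds were serially diluted in RPMI 1640 (0.0625-32 mg/L) and incubated with isolates at 37°C for 48 h. Visual reading gave the MIC as the lowest growth-free concentration, and MICs were pooled as a geometric mean over isolates; inocula came from 48 h Sabouraud-dextrose cultures.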

[5] = tested on: Candida haemulonii complex; experiment: Biofilm-growing cells, overall across isolates; assay type: cell-based; conditions: for Overall GM-bMIC: geometric mean across strains, values marked * do not include LIP Ch4 (>512)
Summary of the method: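 Metabolic activity was read by XTT reduction to formazan. Compounds were added at planktonic-assay concentrations for 48 h at 37 °C to washed 48 h biofilms grown from 10^6 cells in Sabouraud-dextrose broth. bMIC was defined as the minimal concentration inhibiting metabolic activity by 50% relative to untreated wells.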

[6] = Solubility in solvents; assay type: physicochemical; conditions: solvents as named
Description: {[Cu(3,6,9-tdda)(phen)2].3H2O.EtOH}n (7). Step (i): Copper(II) acetate hydrate (1.50 g; 7.51 mmol) was dissolved in ethanol (50 mL) and the solution was added to an ethanolic solution (25 mL) of 3,6,9-trioxaundecanedioic acid (3,6,9-tddaH2) (2.84 g; […]). The light-green suspension was refluxed for 1 h, and after cooling to room temperature the light-green solid, [Cu(3,6,9-tdda)].H2O, was filtered off, washed with cold ethanol and air dried. Yield: 1.88 g (82.97%). % Calculated: C: 31.84, H: 4.68. % Found: C: 32.20, H: 4.60. […] Step (ii): [Cu(3,6,9-tdda)].H2O (1.00 g; 3.31 mmol) and phen (2.39 g; 13.26 mmol) were dissolved together in ethanol (50 mL) and the resulting dark-green mixture was refluxed for 2 h. The suspension was cooled and the green solid, {[Cu(3,6,9-tdda)(phen)2]3H2O.EtOH}n(7), was filtered off, washed with cold ethanol and air dried. Yield: 1.63 g (66.09%). % Calculated: C: 54.87, H: 5.42, N: 7.53. % Found: C: 54.65, H: 5.63, N: 7.39.
[Ag2(3,6,9-tdda)(phen)4].EtOH (16). Step (i): Silver(I) acetate (3.00 g; 17.97 mmol) was dissolved in ethanol (30 mL) and the solution was added to an ethanolic solution (25 mL) of 3,6,9-trioxaundecanedioic acid (3,6,9-tddaH2) (2.84 g; 8.95 mmol) and the orange-brown suspension refluxed for 3 h. […] Green [Ag2(3,6,9-tdda)(phen)4].EtOH (16) precipitated and was filtered off, washed with cold ethanol and air dried. Yield: 0.83 g (65.10%). % Calculated: C: 57.92, H: 4.19, N: 9.32. % Found: C: 57.75, H: […], N: 9.02. IR (KBr) νmax: 3380, 3046, 2905, 1978, 1804, 1618, 1585, 1509, 1421, 1322, 1263, 1215, 1121, 1077, 1018, 932, 890, 838, 726, 621, 465, 413 cm^−1. ^1H NMR (500 MHz, DMSO-d6, 313 K, TMS) δ = 9.12(8H, s), 8.63 (8H, d), 8.08 (8H, s), 7.91 (8H, dd), 3.74 (4H, s), 3.57 (8H, dd). ^13C NMR (125 MHz, DMSO-d6, 313 K, TMS) δ = 173.41, 151.28, 143.57, 138.03, 129.24, 127.37, 124.74, 71.44, 70.42, 69.74.

Row | Compound | GM-MIC [1] [µg/mL] | MIC ([1]; isolate LIP Ch1) [µg/mL] | MIC ([1]; isolate LIP Ch6) [µg/mL] | MIC ([1]; isolate LIP Ch8) [µg/mL] | GM-MIC [2] [µg/mL] | MIC ([2]; isolate LIP Ch5) [µg/mL] | MIC ([2]; isolate LIP Ch9) [µg/mL] | MIC ([2]; isolate LIP Ch11) [µg/mL] | GM-MIC [3] [µg/mL] | MIC ([3]; isolate LIP Ch4) [µg/mL] | MIC ([3]; isolate LIP Ch7) [µg/mL] | MIC ([3]; isolate LIP Ch12) [µg/mL] | Overall GM-MIC [4] [µg/mL] | MIC [4] [µM] | decrease in activity on going from planktonic to biofilm cells ([5]; biofilm MIC versus planktonic MIC) [fold] | Overall GM-bMIC [5] [mg/L] | Solubility [6]
1 | CCO.O=C([O-])COCCOCCOCC(=O)[O-].[Ag+].[Ag+].c1cnc2c(c1)ccc1cccnc12.c1cnc2c(c1)ccc1cccnc12.c1cnc2c(c1)ccc1cccnc12.c1cnc2c(c1)ccc1cccnc12 [compound 16, [Ag2(3,6,9-tdda)(phen)4].EtOH] | 1.26 | 2 | 1 | 1 | 0.79 | 1 | 0.5 | 1 | 1 | 1 | 1 | 1 | 1 | 0.83 | 6.3 | 6.35 | soluble in H2O, MeOH, EtOH and insoluble in ethyl acetate and acetone
2 | {[Cu(3,6,9-tdda)(phen)2].3H2O.EtOH}n [compound 7] | 2 | 2 | 2 | 2 | 2.52 | 2 | 2 | 4 | 3.17 | 4 | 4 | 2 | 2.52 | 3.37 | – | 5.88 | soluble in H2O, MeOH, EtOH and insoluble in ethyl acetate and acetone
